From US4552868A, “14-Amino steroid derivatives, a process for the preparation thereof and method of use thereof” (Etablissements Nativelle S.A., priority 1982, dated 1985)

Tests used:
membraneous ATPase = assay: Inhibition of membraneous ATPase; type: biochemical; details: read-out: ED50 (dose causing 50% inhibition of membraneous ATPase)
Source text: The results obtained using the derivatives of the invention described in Examples 2, 6 and 7 and ouabain and digoxin are shown in Table 2 below.
In Table 2, the ED50 value is the dose causing 50% inhibition of membraneous ATPase.

cardiac contractility = assay: Toxicity versus increase in cardiac contractility in the anesthetized dog; type: in vivo
Source text: Similarly, the toxicity of the derivatives of the invention is reversible, that is, stopping their administration is sufficient to make problems observed using an electrocardiogram disappear.

[1] = tested on: isolated guinea pig auricle; assay: Positive inotropic activity: increase in force of contraction on the isolated guinea pig auricle; details: Cavia porcellus, read-out: Range of contractions in relation to the control values; for activation at 2 µM: 2 × 10^-6 Moles/l; for activation at 0.2 µM: 2 × 10^-7 Moles/l; for activation at 6 µM: 6 × 10^-6 Moles/l; for activation at 10 µM: 10^-5 Moles/l; for activation at 1 µM: 10^-6 Moles/l
Source text: Inotropic activity has been verified on the isolated guinea pig auricle under normal experimental conditions, by recording the range of contractions for various doses administered in relation to control values.
Range of contractions in relation to the control values

C[C@@H]1O[C@@H](O[C@H]2C[C@@H](O)[C@]3(CO)[C@H]4[C@H](O)C[C@]5(C)[C@@H](C6=CC(=O)OC6)CC[C@]5(O)[C@@H]4CC[C@]3(O)C2)[C@H](O)[C@H](O)[C@H]1O [ouabain, reference compound]
IC50 (membraneous ATPase): 3.6 nM

C[C@H]1O[C@@H](O[C@H]2[C@@H](O)C[C@H](O[C@H]3[C@@H](O)C[C@H](O[C@H]4CC[C@@]5(C)[C@H](CC[C@@H]6[C@@H]5C[C@@H](O)[C@]5(C)[C@@H](C7=CC(=O)OC7)CC[C@]65O)C4)O[C@@H]3C)O[C@@H]2C)C[C@H](O)[C@@H]1O [digoxin, reference compound]
increase in cardiac contractility at which toxic signs appear (cardiac contractility; same experimental conditions): approximately 50% | IC50 (membraneous ATPase): 5.3 nM | activation at 2 µM [1]: 114% | activation at 0.2 µM [1]: 38% | activation at 6 µM [1]: 128% | activation at 10 µM [1]: 128% | activation at 1 µM [1]: 100%

C[C@@H]1O[C@@H](O[C@H]2CC[C@@]3(C)[C@H](CC[C@@H]4[C@@H]3CC[C@]3(C)[C@@H]([C@@H](C)O)CC[C@]43N)C2)[C@H](O)[C@H](O)[C@H]1O [Example 7, 3-O-(α-L-rhamnopyranosyl) 14β-amino 5β-pregnane 3β,20β-diol]
IC50 (membraneous ATPase): 0.07 nM | activation at 2 µM [1]: 178% | activation at 0.2 µM [1]: 50% | activation at 6 µM [1]: 233% | activation at 10 µM [1]: 206% | activation at 1 µM [1]: 97%

C[C@H](O)[C@H]1CC[C@]2(N)[C@@H]3CC[C@@H]4C[C@@H](O[C@@H]5O[C@@H](C)[C@H](O)[C@@H](O)[C@H]5O)CC[C@]4(C)[C@H]3CC[C@]12C [Example 6, 3-O-(α-L-rhamnopyranosyl) 14β-amino 5β-pregnane 3β,20α-diol]
increase in cardiac contractility without any signs of toxicity (cardiac contractility): 150% | signs of toxicity (cardiac contractility; at 150% increase in cardiac contractility): without any signs of toxicity | IC50 (membraneous ATPase): 0.18 nM | activation at 2 µM [1]: 63% | activation at 6 µM [1]: 143% | activation at 10 µM [1]: 148% | activation at 1 µM [1]: 43%

C[C@@H]1O[C@@H](O[C@H]2CC[C@@]3(C)[C@H](CC[C@@H]4[C@@H]3CC[C@]3(C)[C@@H](CO)CC[C@]43N)C2)[C@H](O)[C@H](O)[C@H]1O [Example 2, 3-O-(α-L-rhamnopyranosyl) 14β-amino 21-nor 5β-pregnane 3β,20-diol]
IC50 (membraneous ATPase): 0.13 nM
